ChEMBL document CHEMBL3414466, “Synthesis and anticancer activity of N-substituted 2-arylquinazolinones bearing trans-stilbene scaffold” (Eur J Med Chem, 2015)
Activity calls are given as the source filed them. The calls are words filed in the database; no cut-off is given here.

Key:
MDA-MB-231 [1] = assay: Cytotoxicity against human MDA-MB-231 cells by MTT assay; assay type: functional, cell-based
MCF7 [2] = assay: Cytotoxicity against human MCF7 cells by MTT assay; assay type: functional, cell-based
T47D [3] = assay: Cytotoxicity against human T47D cells by MTT assay; assay type: functional, cell-based
MCF7 [4] = assay: Induction of apoptosis in human MCF7 cells assessed as necrotic cells at IC50 after 12 hrs by annexin V-FITC/propidium iodide staining-based flow cytometric analysis (reference value: 0.29%); assay type: functional
MDA-MB-231 [5] = assay: Induction of apoptosis in human MDA-MB-231 cells assessed as early apoptotic cells at IC50 after 12 hrs by annexin V-FITC/propidium iodide staining-based flow cytometric analysis (reference value: 3.82%); assay type: functional
MDA-MB-231 [6] = assay: Induction of apoptosis in human MDA-MB-231 cells assessed as change in morphology at IC50 after 24 hrs by acridine orange/ethidium bromide staining-based fluorescence microscopic analysis; assay type: functional, cell-based
MCF7 [7] = assay: Induction of apoptosis in human MCF7 cells assessed as change in morphology at IC50 after 24 hrs by acridine orange/ethidium bromide staining-based fluorescence microscopic analysis; assay type: functional, cell-based
MCF7 [8] = assay: Induction of apoptosis in human MCF7 cells assessed as early apoptotic cells at IC50 after 12 hrs by annexin V-FITC/propidium iodide staining-based flow cytometric analysis (reference value: 2.49%); assay type: functional
MDA-MB-231 [9] = assay: Induction of apoptosis in human MDA-MB-231 cells assessed as necrotic cells at IC50 after 12 hrs by annexin V-FITC/propidium iodide staining-based flow cytometric analysis (reference value: 0.97%); assay type: functional
MDA-MB-231 [10] = assay: Potency index, ratio of etoposide IC50 to compound IC50 for human MDA-MB-231 cells; assay type: functional
MDA-MB-231 [11] = assay: Induction of apoptosis in human MDA-MB-231 cells assessed as late apoptotic cells at IC50 after 12 hrs by annexin V-FITC/propidium iodide staining-based flow cytometric analysis (reference value: 0.01%); assay type: functional
MCF7 [12] = assay: Induction of apoptosis in human MCF7 cells assessed as late apoptotic cells at IC50 after 12 hrs by annexin V-FITC/propidium iodide staining-based flow cytometric analysis relative to control; assay type: functional
MDA-MB-231 [13] = assay: Induction of apoptosis in human MDA-MB-231 cells assessed as viable cells at IC50 after 12 hrs by annexin V-FITC/propidium iodide staining-based flow cytometric analysis (reference value: 95.2%); assay type: functional
T47D [14] = assay: Potency index, ratio of etoposide IC50 to compound IC50 for human T47D cells; assay type: functional
MCF7 [15] = assay: Potency index, ratio of etoposide IC50 to compound IC50 for human MCF7 cells; assay type: functional
MCF7 [16] = assay: Induction of apoptosis in human MCF7 cells assessed as viable cells at IC50 after 12 hrs by annexin V-FITC/propidium iodide staining-based flow cytometric analysis (reference value: 97.23%); assay type: functional

SMILES	IC50 (MDA-MB-231 [1]) [µM]	IC50 (MCF7 [2]) [µM]	IC50 (T47D [3]) [µM]	other results
O=c1c2ccccc2nc(-c2ccccc2/C=C/c2ccccc2)n1Cc1ccccc1	> 100	> 100	> 100	–
CCCn1c(-c2ccccc2/C=C/c2ccccc2)nc2ccccc2c1=O	> 100	29.4	> 100	–
C=CCn1c(-c2ccccc2/C=C/c2ccccc2)nc2ccccc2c1=O	4.1	10.3	5.8	–
CC(C)n1c(-c2ccccc2/C=C/c2ccccc2)nc2ccccc2c1=O	8.4	6.7	6.2	–
CCCCn1c(-c2ccccc2/C=C/c2ccccc2)nc2ccccc2c1=O	4	9.8	7.9	–
O=c1c2ccccc2nc(-c2ccccc2/C=C/c2ccccc2)n1C1CCCC1	> 100	> 100	> 100	–
CCC(C)n1c(-c2ccccc2/C=C/c2ccccc2)nc2ccccc2c1=O (stereo not drawn)	4.9	3.8	3.6	Activity (MCF7 [4]): 2.14%; Activity (MDA-MB-231 [5]): 16.55%; Activity (MDA-MB-231 [6]): Active; Activity (MCF7 [7]): Active; Activity (MCF7 [8]): 26.45%; Activity (MDA-MB-231 [9]): 0.97%; Ratio IC50 (MDA-MB-231 [10]): 2; Activity (MDA-MB-231 [11]): 2.27%; Activity (MCF7 [12]): 1.95%; Activity (MDA-MB-231 [13]): 80.2%; Ratio IC50 (T47D [14]): 2; Ratio IC50 (MCF7 [15]): 2; Activity (MCF7 [16]): 69.46%
O=c1c2ccccc2nc(-c2ccccc2/C=C/c2ccccc2)n1C1CC1	5.5	5.3	6.8	Activity (MCF7 [4]): 0.59%; Activity (MDA-MB-231 [5]): 22.41%; Activity (MDA-MB-231 [6]): Active; Activity (MCF7 [7]): Active; Activity (MCF7 [8]): 25.88%; Activity (MDA-MB-231 [9]): 4.37%; Activity (MDA-MB-231 [11]): 3.09%; Activity (MCF7 [12]): 0.77%; Activity (MDA-MB-231 [13]): 70.13%; Activity (MCF7 [16]): 72.75%
CCn1c(-c2ccccc2/C=C/c2ccccc2)nc2ccccc2c1=O	8.4	8.7	10.2	–
COc1ccc(Cn2c(-c3ccccc3/C=C/c3ccccc3)nc3ccccc3c2=O)cc1	> 100	> 100	> 100	–
O=c1c2ccccc2nc(-c2ccccc2/C=C/c2ccccc2)n1-c1ccccc1	> 100	44.9	> 100	–
CC(C)Cn1c(-c2ccccc2/C=C/c2ccccc2)nc2ccccc2c1=O	6.9	23.3	9.3	–
COc1cc([C@@H]2c3cc4c(cc3[C@@H](O[C@@H]3O[C@@H]5CO[C@@H](C)O[C@H]5[C@H](O)[C@H]3O)[C@H]3COC(=O)[C@H]23)OCO4)cc(OC)c1O [ETOPOSIDE]	10.3	–	8.9	Activity (MCF7 [4]): 0.1%; Activity (MDA-MB-231 [5]): 22.41%; Activity (MCF7 [8]): 36.92%; Activity (MDA-MB-231 [9]): 0.27%; Activity (MDA-MB-231 [11]): 0.8%; Activity (MCF7 [12]): 0.08%; Activity (MDA-MB-231 [13]): 76.53%; Activity (MCF7 [16]): 62.89%
Cc1ccc(-n2c(-c3ccccc3/C=C/c3ccccc3)nc3ccccc3c2=O)cc1	> 100	> 100	> 100	–
COc1ccc(-n2c(-c3ccccc3/C=C/c3ccccc3)nc3ccccc3c2=O)cc1	> 100	> 100	> 100	–
Cc1ccc(Cn2c(-c3ccccc3/C=C/c3ccccc3)nc3ccccc3c2=O)cc1	23.8	24.7	28.2	–
